# Results taken from the OPERA property sets (Mansouri et al. 2018).
# Details: not given
SMILES,boiling point,melting point,log10 vapour pressure (mmHg),log10 Koc (L/kg),log10 Henry constant (atm·m³/mol),ready biodegradability,log10 Koa,log10 biodegradation half-life (days)
CSc1ccc(N)cc1,272 °C,–,–,–,–,–,–,–
CCCCCCCCC(O)CCCCCCCC,–,61 °C,–,–,–,–,–,–
c1ccc(C2CCCCC2)cc1,240 °C,7.3 °C,-1.4,–,–,–,–,–
CCOC(=O)CC(=O)c1ccccc1,–,–,-3.39,–,–,–,–,–
C=CC(C)C(C)CC (configuration not stated),112 °C,–,–,–,–,–,–,–
O=C(O)CCc1c[nH]c2ccccc12,–,134 °C,–,–,–,–,–,–
CCc1ccc([N+](=O)[O-])cc1,246 °C,-12.3 °C,–,–,–,–,–,–
CCOC(=O)c1ccc(N)cc1,310 °C,92 °C,–,–,–,–,–,–
CCOP(=S)(OCC)SCCSCC,–,-25 °C,-4.01,3.22,–,–,–,–
Cc1ccc2nccnc2c1,249 °C,218 °C,–,–,–,–,–,–
O=C(O)C1=CCCc2ccccc21,306 °C,125 °C,–,–,–,–,–,–
O=c1oc(=O)c2ccccc2c2ccccc12,–,217 °C,–,–,–,–,–,–
OCCc1c[nH]c2ccccc12,–,59 °C,–,–,–,–,–,–
O=C1c2ccccc2C(=O)c2cc(O)ccc21,–,306 °C,-10.2,–,–,–,–,–
CCCCC(CC)COC(=O)CCCCC(=O)OCC(CC)CCCC (configuration not stated),417 °C,-67.8 °C,-6.07,4.19,-6.36,readily biodegradable,–,–
FC(Cl)CCl (configuration not stated),73.7 °C,-60 °C,–,–,–,–,–,–
Clc1ccc(Oc2cccc(Cl)c2Cl)cc1,–,–,-3.94,–,–,–,–,–
CCNc1cccc(O)c1,–,62 °C,–,–,–,–,–,–
CCCCC1C(=O)N(c2ccccc2)N(c2ccc(O)cc2)C1=O (configuration not stated),–,96 °C,–,–,–,–,–,–
CCCCCCCCCCCC(=O)O,299 °C,43.2 °C,-4.8,–,–,–,–,–
CC(O)C(O)CO (configuration not stated),–,–,-2.47,–,–,–,–,–
N#CCCCCC#N,295 °C,1 °C,-3.17,–,–,readily biodegradable,–,–
NC(=O)NC(=O)Cc1ccccc1,–,215 °C,–,–,–,–,–,–
CP(=O)(O)CCC(N)C(=O)[O-].[NH4+] (configuration not stated),–,215 °C,–,–,–,–,–,–
C[C@H](N[C@H](CCc1ccccc1)C(=O)O)C(=O)N1CCC[C@H]1C(=O)O,–,150 °C,–,–,–,–,–,–

SMILES,boiling point,melting point,log10 vapour pressure (mmHg),log10 Koc (L/kg),log10 Henry constant (atm·m³/mol),ready biodegradability,log10 Koa,log10 biodegradation half-life (days)
O=[n+]1[n-]c(-n2ccnc2)nc2ccc(Cl)cc21,–,182 °C,-8.65,–,–,–,–,–
FC(F)(Cl)C(F)(Cl)Cl,47.7 °C,-35 °C,2.56,–,–,not readily biodegradable,–,–
COc1ccc(CCc2cc(OC)c3ccccc3n2)cc1OC,–,116 °C,–,–,–,–,–,–
CNCCS(=O)(=O)O,–,242 °C,–,–,–,readily biodegradable,–,–
O=C1CCc2ccccc2O1,272 °C,25 °C,–,–,–,–,–,–
CCCCCCCC(N)=O,239 °C,108 °C,–,–,–,–,–,–
c1cc2ccc3cccc4ccc(c1)c2c34,404 °C,151 °C,-5.35,4.9,-4.92,–,8.8,2.37
CCN(CC)C(=O)c1ccc(O)c(OC)c1,–,95 °C,–,–,–,–,–,–
CC(=O)C1C(=O)C=C(C)OC1=O (configuration not stated),270 °C,109 °C,-2.9,–,–,readily biodegradable,–,–
CCOP(=S)(OCC)Oc1ncn(-c2ccccc2)n1,–,–,-5.54,–,–,–,–,–
CN1C(=O)C(=O)c2ccccc21,–,132 °C,–,–,–,–,–,–
CCCCC(=O)OC,127 °C,–,1.28,–,-3.5,–,–,–
COc1ccc(O)cc1,243 °C,57 °C,–,–,–,readily biodegradable,–,–
Nc1ccc2[nH]ccc2c1,–,132 °C,–,–,–,–,–,–
CCC(C)OC (configuration not stated),65 °C,-100 °C,2.32,–,–,–,–,–
c1ccc2sc(SN3CCOCC3)nc2c1,–,85 °C,-5.48,–,–,not readily biodegradable,–,–
C=CC(O)CCC (configuration not stated),134 °C,–,–,–,–,–,–,–
N#CCC(=O)NN,–,114 °C,–,–,–,–,–,–
ClCC(Cl)CCl,157 °C,-14.7 °C,0.567,–,-3.46,not readily biodegradable,–,–
Nc1cccc2ncccc12,310 °C,110 °C,-4.77,–,–,–,–,–
CC(F)(F)C(Cl)(Cl)Cl,73 °C,–,–,–,–,–,–,–
O=[N+]([O-])c1ccccc1/C=C/c1ccccc1,–,73 °C,–,–,–,–,–,–
OCCN1CCNCC1,246 °C,–,–,–,–,–,–,–
O=C([O-])CF.[Na+],–,201 °C,–,–,–,–,–,–
O=C(O)c1c(Cl)c(Cl)c(Cl)c(Cl)c1Cl,–,209 °C,–,–,–,–,–,–

SMILES,boiling point,melting point,log10 vapour pressure (mmHg),log10 Koc (L/kg),log10 Henry constant (atm·m³/mol),ready biodegradability,log10 Koa,log10 biodegradation half-life (days)
Cc1ncc(CSSCc2cnc(C)c(O)c2CO)c(CO)c1O,–,219 °C,–,–,–,–,–,–
C=C(C)CCC(=C)C,114 °C,-75.6 °C,–,–,–,–,–,–
CCOP(=S)(OCC)SCn1nnc2ccccc2c1=O,–,53 °C,–,–,–,–,–,–
CN1CCN(C(c2ccccc2)c2ccccc2)CC1,–,106 °C,–,–,–,–,–,–
Cc1nnc(N)s1,–,224 °C,–,–,–,–,–,–
c1ccc(NNc2ccccc2)cc1,309 °C,131 °C,-3.36,2.98,–,–,–,–
Clc1ccoc1,80 °C,–,–,–,–,–,–,–
ICCCI,–,-20 °C,–,–,–,–,–,–
CC1CCSC1 (configuration not stated),139 °C,–,–,–,–,–,–,–
Cc1ccc(C)c(C)c1,169 °C,-43.8 °C,0.322,–,-2.21,not readily biodegradable,–,0.602
Cc1cc(C)c(S(=O)(=O)Cl)c(C)c1,–,56 °C,–,–,–,–,–,–
CCC(C(=O)O)C(=O)O,–,114 °C,–,–,–,–,–,–
FC(F)(F)c1ccccc1,102 °C,-29.1 °C,1.59,–,–,not readily biodegradable,–,–
COc1cc(C=CCO)ccc1O,–,74 °C,–,–,–,–,–,–
c1cc2c(cc1O[C@H]1OC[C@H]3[C@@H]1CO[C@@H]3c1ccc3c(c1)OCO3)OCO2,–,93.5 °C,–,–,–,–,–,–
N#Cc1ccc(N)cc1Cl,–,118 °C,–,–,–,–,–,–
CC(C)(C)c1cccc(C(C)(C)C)c1O,253 °C,39 °C,–,–,–,not readily biodegradable,–,–
COC(=O)c1ccc(Br)cc1,–,81 °C,–,–,–,–,–,–
O=C(O)Cc1ccc(Cl)cc1,–,106 °C,–,–,–,–,–,–
CC=CC(=O)Cl,124 °C,–,–,–,–,–,–,–
CNc1ccccn1,200 °C,15 °C,–,–,–,–,–,–
Cc1c(Cl)cccc1Cl,198 °C,25.8 °C,–,–,–,not readily biodegradable,–,–
NC(=O)Nc1cccc(C(F)(F)F)c1,–,–,–,1.98,–,–,–,–
O=C(Nc1cccc2ccccc12)c1ccccc1C(=O)[O][Na],–,–,–,3.34,–,–,–,–
CCCCC(CC)C(C)C (configuration not stated),163 °C,–,–,–,–,–,–,–

SMILES,boiling point,melting point,log10 vapour pressure (mmHg),log10 Koc (L/kg),log10 Henry constant (atm·m³/mol),ready biodegradability,log10 Koa,log10 biodegradation half-life (days)
Cc1c(O)cc2c(c1C)OC(C)(CCCC(C)CCCC(C)CCCC(C)C)CC2 (configuration not stated),–,-3 °C,–,–,–,–,–,–
C/C=C/CCCO,159 °C,–,–,–,–,–,–,–
CCCCCCCCCCCCCCCc1cccc(O)c1O,–,59.5 °C,–,–,–,–,–,–
COc1ccc2[nH]c3c(c2c1)CCNC3C (configuration not stated),–,150 °C,–,–,–,–,–,–
c1ccc(Nc2ccccn2)nc1,308 °C,90.5 °C,–,–,–,–,–,–
CN(C)C(=O)N(C(=O)c1ccccc1)c1ccc(Cl)c(Cl)c1,–,119 °C,–,–,–,–,–,–
CCc1ccccc1Cl,178 °C,-82.7 °C,–,–,–,–,–,–
Cc1csc(C)c1,141 °C,–,–,–,–,–,–,–
CCCc1ccc(N)cc1,225 °C,–,–,–,–,–,–,–
Clc1cc(Cl)c(-c2ccccc2)cc1Cl,–,76.3 °C,-3.01,–,-3.7,–,8,–
CCC(CC)CC(C)C,134 °C,–,–,–,–,–,–,–
CNC(=O)Oc1cc(C(C)(C)C)cc(C(C)(C)C)c1,–,103 °C,-5.7,–,–,–,–,–
Nc1ccc(Cc2ccc(N)c(Cl)c2)cc1Cl,379 °C,110 °C,–,–,–,not readily biodegradable,–,–
O=c1cc[nH]c(=O)[nH]1,–,338 °C,-4.33,–,–,–,–,–
CCCCN(C(C)=O)c1ccccc1,281 °C,24.5 °C,–,–,–,–,–,–
CCCCC(C#N)(Cn1cncn1)c1ccc(Cl)cc1 (configuration not stated),–,–,–,2.7,–,–,–,–
O=CNc1ccccc1,271 °C,46 °C,-2.45,–,–,–,–,–
N#CCI,185 °C,–,–,–,–,–,–,–
O=c1occc2ccccc12,286 °C,47 °C,–,–,–,–,–,–
CCCCCCCCCCCCCCCCCCCCCCCCCCCCCCCCCCCCCC,512 °C,–,–,–,–,readily biodegradable,–,–
CC(=O)OCCCCl,164 °C,–,–,–,–,–,–,–
CCCCCSSCCCCC,–,–,-2.2,–,–,–,–,–
CC[C@@H](CO)NC(=O)[C@@H]1C=C2c3cccc4[nH]cc(c34)C[C@H]2N(C)C1,–,172 °C,–,–,–,–,–,–
N#CC(F)(F)F,-68.8 °C,–,–,–,–,–,–,–
O=C1c2ccccc2C(=O)C1C(=O)C(c1ccccc1)c1ccc(Cl)cc1 (configuration not stated),–,140 °C,-9.12,–,–,–,–,–

SMILES,boiling point,melting point,log10 vapour pressure (mmHg),log10 Koc (L/kg),log10 Henry constant (atm·m³/mol),ready biodegradability,log10 Koa,log10 biodegradation half-life (days)
CCOC(=O)NC(N)=O,–,196 °C,–,–,–,–,–,–
CCCCN(CCN(CCCC)C(=O)N1CCOCC1)C(=O)N1CCOCC1,–,41.5 °C,–,–,–,–,–,–
CC(C)Nc1ccc(NC(C)C)c2c1C(=O)c1ccccc1C2=O,–,–,–,–,–,not readily biodegradable,–,–
CC(C)(C)N(NC(=O)c1ccccc1)C(=O)c1ccc(Cl)cc1Cl,–,134 °C,–,–,–,–,–,–
CC(C)(C)C(O)/C(=C\c1ccc(Cl)cc1Cl)n1cncn1 (configuration not stated),–,147 °C,-4.43,–,–,–,–,–
Cc1cc(C)c(C)s1,164 °C,–,–,–,–,–,–,–
Clc1ccc2ccc(Cl)nc2c1,–,120 °C,–,–,–,–,–,–
CN(C)CCC#N,173 °C,–,–,–,–,–,–,–
C#CC(O)CCC (configuration not stated),142 °C,-80 °C,–,–,–,–,–,–
CCC1(CC)C(=O)NC(=O)NC1=O,–,190 °C,–,–,–,–,–,–
Brc1ccccn1,195 °C,–,-0.114,–,–,–,–,–
CCOC(C)CC (configuration not stated),81 °C,–,–,–,–,–,–,–
CC(=O)OCC(=O)[C@H]1CC[C@H]2[C@@H]3CC[C@H]4C[C@H](O)CC[C@]4(C)[C@H]3C(=O)C[C@]12C,–,176 °C,–,–,–,–,–,–
CCCC(=O)C=Cc1ccc(O)c(O)c1,–,132 °C,–,–,–,–,–,–
c1ccc2c(c1)oc1ccccc12,287 °C,86.5 °C,-2.61,3.91,–,readily biodegradable,–,–
CCOC(=O)c1c(C)cc(O)cc1O,–,132 °C,–,–,–,–,–,–
S=C=Nc1cccc(Cl)c1,250 °C,–,–,–,–,–,–,–
FC(F)(F)C(F)(F)C(F)(F)C(F)(F)C(F)(F)C(F)(F)C(F)(F)C(F)(F)C(F)(F)C(F)(F)C(F)(F)C(F)(F)C(F)(F)C(F)(F)C(F)(F)C(F)(F)C(F)(F)C(F)(F)C(F)(F)C(F)(F)C(F)(F)C(F)(F)C(F)(F)C(F)(F)F,–,189 °C,–,–,–,–,–,–
CSc1c(N)nc(N)nc1Cl,–,–,–,2.08,–,–,–,–
O=C(Nc1ccc([N+](=O)[O-])cc1Cl)c1cc(Cl)ccc1O,–,230 °C,-10.8,3.35,–,not readily biodegradable,–,–
COC(=O)Cc1ccccc1,216 °C,–,–,–,–,–,–,–
O=C(Cl)c1ccc(Cl)cc1Cl,–,16.5 °C,–,–,–,–,–,–
COc1cc2c(c(OC)c1OC)-c1ccc(SC)c(=O)cc1[C@@H](NC(C)=O)CC2,–,193 °C,–,–,–,–,–,–

# Same assay, conditions: fish
SMILES,log10 BCF,log10 biotransformation half-life (days)
CCOP(=S)(OCC)SCCSCC,2.34,0.03
CCCCCCCCCCCC(=O)O,2.4,–
FC(F)(Cl)C(F)(Cl)Cl,1.7,–
c1cc2ccc3cccc4ccc(c1)c2c34,3.18,0.32
Brc1ccc(Oc2cc(Br)c(Br)c(Br)c2)cc1Br,6.43,–
ClCC(Cl)CCl,1.11,-0.53
CCCCC(CC)COC(=O)c1nc(Cl)c(Cl)c(N)c1Cl (configuration not stated),–,0.45
Cc1ccc(C)c(C)c1,2.08,-0.31
FC(F)(F)c1ccccc1,1.65,-0.48
Clc1cc(Cl)c(-c2ccccc2)cc1Cl,3.78,1.84
Nc1ccc(Cc2ccc(N)c(Cl)c2)cc1Cl,2.24,-0.15
Clc1ccc(Cl)c2ccccc12,3.75,2.37
c1ccc2c(c1)oc1ccccc12,3.18,1.35
